According to US12202942B2, “Functionalized silicone polymers and methods of making and using the same” (Wilmar Trading Pte. Ltd., priority 2018, dated 2025):

Legend:
Type in all cases: physicochemical
[1] = Surface tension of grafted siloxane derivatives
Experimental: (§1) The reactions were extremely exothermic and needed to be cooled by a dry ice bath once the temperature approached 30° C. For these reactions, an excess amount of terminal olefin substrate was used based on the equivalent weight (eqW) of hydrosiloxane. Reaction progress was monitored by FTIR as both the hydrosilane absorbance (2150 cm-1) and terminal olefin absorbance (1640 cm-1) disappeared while the carbonyl absorbance remained constant (1735 cm-1). Once the reaction was judged complete, the unreacted olefin starting material was removed by vacuum distillation. The resulting organofunctional siloxane oligomers were analyzed without further purification by 1H-NMR spectroscopy.

[2] = Brookfield viscosity of grafted siloxane derivatives
Experimental: as §1
Into either a 50 or 100 ml three-necked, round-bottomed flask equipped with a magnetic stirrer, a thermocouple with a J-Kem controller, a heating mantle and a short path distillation apparatus with a nitrogen inlet was added the uC10 derivative and the hydrosilane oligomer. In most cases the reaction was run neat, however the uC10MEE-16-based reactions were two phase so that isopropanol (IPOH) was added to compatiblize the reactants. Once the catalyst was added (1 drop) at ambient temperatures, the temperature was carefully monitored. The reaction was gentle warmed by an air gun until about 30° C. when heating was discontinued and a dry ice bath was used to moderate the vigorous exotherm. Once the temperature had stabilized, then the heating mantle was used to hold the reaction temperature at 60° C. for the next few hours. The reaction's progress was easily monitored by FTIR as both the hydrosilane absorbance (2150 cm^−1) and the terminal olefin's absorbance (1640 cm^−1) disappeared while the carbonyl absorbance remained constant (1735 cm^−1). When the reactions were judged complete, they were typically subjected to reduced pressure to remove any excess reagents or solvents. The products were transferred into 2 oz glass bottles and remained liquids except for the uC16MEE-16-based materials that solidified. […]

[3] = Solubility in organic solvents

| SMILES | Surface Tension (20° C.) [1] [mN/m] | Viscosity (25° C.) [2] | Solubility in polar organic solvents (in words) ([3]; polar organic solvents) | Solubility (wt %) MEK ([3]; solvent MEK) [wt %] | Solubility (wt %) Acetone ([3]; solvent acetone) [wt %] | Solubility (wt %) Acetonitrile ([3]; solvent acetonitrile) [wt %] | Solubility (wt %) Ethylene Glycol ([3]; solvent ethylene glycol) [wt %] | Solubility (wt %) Heptanes ([3]; solvent heptanes) [wt %] | Solubility (wt %) Methanol ([3]; solvent methanol) [wt %] |
| --- | --- | --- | --- | --- | --- | --- | --- | --- | --- |
| COCCOCCOCCOC(=O)CCCCCCCCC[Si](C)(O[Si](C)(C)C)O[Si](C)(C)C [Compound 7] | 21.4 | 17 | – | – | – | – | – | – | – |
| C[Si](C)(C)O[Si](C)(CCCCCCCCCC(=O)OCCC(F)(F)C(F)(F)C(F)(F)C(F)(F)F)O[Si](C)(C)C [Compound 9] | 20.8 | 16 | – | – | – | – | – | – | – |
| COC(=O)CCCCCCCCC[Si](C)(O[Si](C)(C)C)O[Si](C)(C)C [Compound 6] | 22.6 | 7.1 | significantly more soluble | >50 | >50 | 13 | 6 | >50 | 17 |
